What was measured:
Test in all cases: selective drug sensitivity score (sDSS, relative to normal bone marrow) (sDSS (score)); higher = more potent and effective on the cell line relative to normal bone marrow cells
Conditions in all cases: 72 h
380 = system: 380
MHH-CALL-4 = system: MHH-CALL-4
MHH-CALL-2 = system: MHH-CALL-2
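Also: ALL cell lines in 384-well plates, five doses spanning 10,000-fold, each plate scaled between vehicle and 100 µmol/L benzalkonium chloride controls, sDSS an adapted area-under-curve metric.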

| Compound | selective drug sensitivity score 380 | selective drug sensitivity score (MHH-CALL-4) | selective drug sensitivity score (MHH-CALL-2) |
| --- | --- | --- | --- |
| COc1cc([C@@H]2c3cc4c(cc3[C@@H](O[C@@H]3O[C@@H]5CO[C@@H](c6cccs6)O[C@H]5[C@H](O)[C@H]3O)[C@H]3COC(=O)[C@H]23)OCO4)cc(OC)c1O [Teniposide] (top concentration 10000 nM) | 0 | 0 | 0 |
| O=C(O)C(=O)O.[NH-][C@@H]1CCCC[C@H]1[NH-].[Pt+2] [Oxaliplatin] (top concentration 100000 nM) | 10.6 | 12.1 | 13.9 |
| O[C@H]1CC[C@H](Nc2ncc3nc(Nc4c(F)cc(F)cc4F)n([C@H]4CCOC4)c3n2)CC1 [Tanzisertib] (top concentration 10000 nM) | 0 | 0.2 | 0.9 |
| CC[C@@H](C(=O)[C@@H](C)[C@@H](O)[C@H](C)[C@@H]1O[C@@H]([C@@H](CC)C(=O)O)CC[C@@H]1C)[C@H]1O[C@]2(C=C[C@@H](O)[C@]3(CC[C@@](C)([C@H]4CC[C@](O)(CC)[C@H](C)O4)O3)O2)[C@H](C)C[C@@H]1C [Salinomycin] (top concentration 50000 nM) | 2.6 | 8.5 | 10.8 |
| Oc1nc(-c2ccc(C(F)(F)F)cc2)nc2c1CSCC2 [XAV939] (top concentration 10000 nM) | 1.96 | -0.14 | 0.26 |
| Nc1nc(OCc2cc(Br)cs2)c2[nH]cnc2n1 [Lomeguatrib] (top concentration 10000 nM) | 0 | 0 | 0 |
| Cc1cc(OCc2nnc(SC3CCCC3)n2-c2cccnc2)ccc1-c1ccc(S(C)(=O)=O)cc1 [NMS-873] (top concentration 10000 nM) | -4.24 | 6.96 | 6.76 |
| CS(=O)(=O)N1CCN(Cc2cc3nc(-c4cccc5[nH]ncc45)nc(N4CCOCC4)c3s2)CC1 [Pictilisib] (top concentration 10000 nM) | 16.4 | 9.26 | 12.3 |
| CC(C)(C#N)c1cc(Cn2cncn2)cc(C(C)(C)C#N)c1 [Anastrozole] (top concentration 10000 nM) | 0 | 0 | 0 |
| O=C(c1cc(Cc2n[nH]c(=O)c3ccccc23)ccc1F)N1CCN(C(=O)C2CC2)CC1 [Olaparib] (top concentration 10000 nM) | 26.8 | 8.68 | 8.88 |
| Nc1nc(F)nc2c1ncn2[C@@H]1O[C@H](CO)[C@@H](O)[C@@H]1O [Fludarabine] (top concentration 10000 nM) | 6.9 | 8.3 | 8 |
| Nc1ncn([C@H]2C[C@H](O)[C@@H](CO)O2)c(=O)n1 [Decitabine] (top concentration 10000 nM) | 9.14 | 0.54 | 1.04 |
| CNC(=O)CN1CCC(Oc2cc3c(Nc4cccc(Cl)c4F)ncnc3cc2OC)CC1 [Sapitinib] (top concentration 1000 nM) | 0 | 0 | 0 |
| Nc1ccn([C@@H]2O[C@H](CO)[C@@H](O)[C@@H]2O)c(=O)n1 [Cytarabine] (top concentration 10000 nM) | 22.2 | 5.4 | 19.6 |
| CC(C)Oc1ccc(C(=O)N[C@H](CNC(=O)CN(C)C)Cc2ccc(-c3cn4cccc([C@H](C)O)c4n3)cc2)cc1Cl (top concentration 10000 nM) | 10.7 | 0.78 | 8.58 |
| CCc1c2c(nc3ccc(O)cc13)-c1cc3c(c(=O)n1C2)COC(=O)[C@]3(O)CC [SN-38] (top concentration 10000 nM) | 27 | 19.7 | 25.2 |
| CCOC(=O)C1=CCCC[C@H]1S(=O)(=O)Nc1ccc(F)cc1Cl [Resatorvid] (top concentration 10000 nM) | 0 | 0 | 0 |
| CCn1c(-c2nonc2N)nc2cnc(Oc3cccc(NC(=O)c4ccc(OCCN5CCOCC5)cc4)c3)cc21 (top concentration 10000 nM) | 7.46 | 10.4 | 8.36 |
| CO[C@H]1C[C@@H]2CC[C@@H](C)[C@@](O)(O2)C(=O)C(=O)N2CCCC[C@H]2C(=O)O[C@H]([C@H](C)C[C@@H]2CC[C@@H](OP(C)(C)=O)[C@H](OC)C2)CC(=O)[C@H](C)/C=C(\C)[C@@H](O)[C@@H](OC)C(=O)[C@H](C)C[C@H](C)/C=C/C=C/C=C/1C [Ridaforolimus] (top concentration 100 nM) | 24.5 | -4.44 | -2.24 |
| COc1cccc2c1C(=O)c1c(O)c3c(c(O)c1C2=O)C[C@@](O)(C(C)=O)C[C@@H]3O[C@H]1C[C@H](N)[C@H](O)[C@H](C)O1 [Daunorubicin] (top concentration 1000 nM) | 13.7 | 7.46 | 6.16 |
| CO[C@H]1C[C@@H]2CC[C@@H](C)[C@@](O)(O2)C(=O)C(=O)N2CCCC[C@H]2C(=O)O[C@H]([C@H](C)C[C@@H]2CC[C@@H](OC(=O)C(C)(CO)CO)[C@H](OC)C2)CC(=O)[C@H](C)/C=C(\C)[C@@H](O)[C@@H](OC)C(=O)[C@H](C)C[C@H](C)/C=C/C=C/C=C/1C [Temsirolimus] (top concentration 100 nM) | 25.5 | -3.54 | -0.34 |
| COC(=O)c1ccc2c(c1)NC(=O)/C2=C(\Nc1ccc(N(C)C(=O)CN2CCN(C)CC2)cc1)c1ccccc1 [Nintedanib] (top concentration 10000 nM) | -4.56 | -1.66 | 1.04 |
| CCN(CC)C(=S)SSC(=S)N(CC)CC [Disulfiram(+CuCl2)] (top concentration 50000 nM) | 1.58 | 3.38 | 8.58 |
| Cc1sc2c(c1C)C(c1ccc(Cl)cc1)=N[C@@H](CC(=O)Nc1ccc(O)cc1)c1nnc(C)n1-2 [Birabresib] (top concentration 10000 nM) | -9.68 | 6.02 | 7.02 |
